Among the data in patent US9393221B2, “Methods and compounds for reducing intracellular lipid storage” (THE GENERAL HOSPITAL CORPORATION, priority 2011, dated 2016) are Z-score values, retold here.

Molecules are shown by their SMILES. Counter-ions that a name gives are not always drawn.

The subject of one assay is ATGL-KO iPSCs. Nature of the assay: High throughput iPSC chemical screening, Oil Red O (ORO) lipid accumulation. Further: test concentration or dose not given here. Type of assay: cell-based, mouse.
Conditions: not given
On to `C[C@]12CC[C@H](O)C[C@@H]1CC[C@@H]1[C@@H]2CC[C@]2(C)C(=O)CC[C@@H]12` [Epiandrosterone], for which the Z-score was −0.835.
The same measure, in the same setting: in the case of `CNC(=O)Oc1ccc2c(c1)[C@]1(C)CCN(C)[C@@H]1N2C.CNC(=O)Oc1ccc2c(c1)[C@]1(C)CCN(C)[C@@H]1N2C.O=S(=O)(O)O` [Eserine sulfate, physostigmine sulfate] it was 0.899.

The assay is the same for the next values; noted with them: normalized ORO level vs DMSO-treated cells; compound present during 7 days differentiation, 96-well; negative = decrease in lipid accumulation.
The compound `C=CCOC(Cn1ccnc1)c1ccc(Cl)cc1Cl` (stereo not shown) [Enilconazole] gave a Z-score of −0.0014.
Same read-out and setting: in the case of `CCn1cc(C(=O)O)c(=O)c2cc(F)c(N3CCNCC3)nc21` [Enoxacin] it was −0.7386; in that of `Oc1cc(O)c2c(c1)O[C@H](c1ccc(O)c(O)c1)[C@H](O)C2` [Epicatechin-(−)], 0.9251.
Same read-out and setting: next, `COc1cc(C)nc(-n2nc(C)cc2OC)n1` [Epirizole]: −0.7031.
Still for that read-out and setting: in the case of `C[C@]12C[C@H]3S[C@H]3C[C@@H]1CC[C@@H]1[C@@H]2CC[C@]2(C)[C@@H](O)CC[C@@H]12` [Epitiostanol] it was −1.7564.
Compound `CC[C@]12CCCN3CCc4c(n(c5ccccc45)[C@](O)(C(=O)OC)C1)[C@@H]32` [Epivincamine] displayed a Z-score of 0.1161.
For `C[C@]12CC[C@H]3C(=CCc4cc(O)ccc43)[C@@H]1CCC2=O` [Equilin], the Z-score is −1.0652.
Still for that read-out and setting: in the case of `CC(C)C[C@H]1C(=O)N2CCC[C@H]2[C@]2(O)O[C@](NC(=O)[C@@H]3C=C4c5cccc6[nH]cc(c56)C[C@H]4N(C)C3)(C(C)C)C(=O)N12` [Ergocryptine-alpha] it was −0.2816; in that of `CC[C@H]1OC(=O)[C@H](C)[C@@H](O[C@H]2C[C@@](C)(OC)[C@@H](O)[C@H](C)O2)[C@H](C)[C@@H](O[C@@H]2O[C@H](C)C[C@H](N(C)C)[C@H]2O)[C@](C)(O)C[C@@H](C)C(=O)[C@H](C)[C@@H](O)[C@]1(C)O` [Erythromycin], 1.131; in that of `O=c1ccc2cc(O)c(O)cc2o1` [Esculetin], −0.9295.
In the case of `O=c1ccc2cc(O[C@@H]3O[C@H](CO)[C@@H](O)[C@H](O)[C@H]3O)c(O)cc2o1` [Esculin Hydrate], the Z-score is given as −1.2808.
On the same count and under the same terms, next, `C[C@]12CC[C@@H]3c4ccc(O)cc4CC[C@H]3[C@@H]1CC[C@@H]2O` [Estradiol-17 beta]: −0.9541; `C[C@]12CC[C@@H]3c4ccc(O)cc4CC[C@H]3[C@@H]1C[C@@H](O)[C@@H]2O` [Estriol]: 0.06999.
Still for that read-out and setting: next, `C[C@]12CC[C@@H]3c4ccc(O)cc4CC[C@H]3[C@@H]1CCC2=O` [Estrone]: −1.8166.
Still for that read-out and setting: in the case of `C[C@]12CC[C@@H]3c4ccc(OS(=O)(=O)O)cc4CC[C@H]3[C@@H]1CCC2=O` [Estropipate] it was −1.7711; in that of `O=C(Cn1ccnc1[N+](=O)[O-])NCCO` [Etanidazole], 0.6681; in that of `C=C(CC)C(=O)c1ccc(OCC(=O)O)c(Cl)c1Cl` [Ethacrynic acid], −0.302.
`CC[C@@H](CO)NCCN[C@@H](CC)CO` [Ethambutol dihydrochloride] came in with a Z-score of −0.6303.
Still for that read-out and setting: next, `CCN(CC)C(=O)c1ccc(O)c(OC)c1` [Ethamivan]: −0.565.
As to `O=S(=O)(O)c1cc(O)ccc1O` [Ethamsylate], the Z-score was determined as 0.04738.
`CCOc1ccc(Cc2nccc3cc(OCC)c(OCC)cc23)cc1OCC` [Ethaverine hydrochloride] came in with a Z-score of 17.3528.
For the compound `CCc1cc(C(N)=S)ccn1` [Ethionamide], the Z-score is on record as −0.9932.
`C#C[C@]1(O)CC[C@H]2[C@@H]3CCC4=CC(=O)CC[C@]4(C)[C@H]3CC[C@@]21C` [Ethisterone]: the Z-score is listed as −0.2541.
The same measure, in the same setting: in the case of `CCN(CC)C(C)CN1c2ccccc2Sc2ccccc21` (stereo not shown) [Ethopropazine hydrochloride] it was −1.7382.
Regarding `CCC1(C)CC(=O)NC1=O` (stereo not shown) [Ethosuximide], the Z-score turned out to be 1.076.
Still for that read-out and setting: next, `CCN1C(=O)NC(c2ccccc2)C1=O` (stereo not shown) [Ethotoin]: −0.7327.
